Test results published in patent US7772197B2, “1,3,5-triazines for treatment of viral diseases” (1,3,5-Triazines for Treatment of Viral Diseases, priority 2002, dated 2010).
Where two headings read alike, the source gives them in different places.

How the values were obtained:
[1] = test system: HIV-1 RTMDR1, with 74V, 41L, 106A and 215Y mutations; experiment: Sensitivity of NRTI-resistant HIV strain RTMDR1, MT-2 cells; assay type: cell-based; settings: Human immunodeficiency virus 1, MT2
Experimental: (§1) 0.1 ml of a 3×10^5 cells/ml MT-2 cell suspension were seeded in 96-well plates at 3×10^4 cells/well. The compounds to be assayed were diluted in a separate 96-well at ten times (10×) the concentration needed for the screen. 22 μl of the 10× compounds was then added to the wells in triplicate except for six control wells, containing uninfected MT-2 cells alone (3 wells) and untreated HIV-infected MT-2 cells (3 wells). This was followed by the addition of HIV-1 at an MOI of 0.01, except for the three wells serving as the uninfected control. 0.1 ml of cRPMI was added to the uninfected well instead of virus. After the addition of virus, the 96-well plate was centrifuged at 1,200×g for two hours to enhance the adsorption of the virus by the MT-2 cells (see, e.g., O'Doherty, J. Virol. 74:10074-10080 (2000)). After the centrifugation step, the 96-well plate was then incubated in a 37° C. incubator containing 5% CO2 for three days. At the end of this time period the virus and cells were mixed by gentle pipetting followed by a 1 minute spin at 600×g to pellet the cells. The supernatant of each well was then serially diluted 1,000-fold into new 96-well plates to serve as inoculum for the next passage and assayed by ELISA for the amount of p24 produced. The next passage was performed as described above, except that the virus used to infect the cells was derived from the 1,000-fold dilution plate.
(§2) To determine if there is resistance of HIV NRTI resistant strains to mutagenic nucleoside analogues, NRTI resistant strains were grown in the presence of 5-aza-dC to determine whether the EC50 for 5-aza-dC is different from the WT strain (HIV-1 LAI). […] Growth of HIV NRTI resistant strains in the presence of the appropriate concentration of NRTI was used as a positive control.
Three HIV NRTI resistant strains (HIV-1 LAI-M184V, HIV-1 RTMDR1, with 74V, 41L, 106A and 215Y mutations, and HIV-1 RTMC, with 67N, 70R, 215F and 219Q mutations) were used to test the effectiveness of 5-aza-dC. […]

mitochondrial DNA = experiment: Mitochondrial toxicity (lactate production, mitochondrial DNA); assay type: cell-based; settings: highest dose tested, 320 μM, data not shown
Experimental: Mitochondrial toxicity is also a safety concern with nucleoside analogs. SN1212 was also analyzed for mitochondrial toxicity. […] (Data not shown.)

HIV = HIV infected SCID-Hu mice; assay type: in vivo
Experimental: After completion of this toxicology experiment, SN1212 was tested in HIV infected SCID-Hu mice. […] The discordance between viral infectivity and conventional surrogate markers of viral load, such as p24 or HIV RNA, is not surprising, as it has also been observed in vitro, and reflects the increased proportion of non-infectious viral particles in the presence of SN1212. It is also interesting to note that, of the treated groups, the immunologic profile of the SN1212 groups most closely resemble that of the uninfected group. This is compatible with the finding that infection with less “fit” viruses provides a relative clinical benefit by preserving cellular immunity.

HIV-1 LAI-M184V = experiment: Sensitivity of NRTI-resistant HIV strain M184V, MT-2 cells; assay type: cell-based; settings: Human immunodeficiency virus 1, MT2
Experimental: as §1, §2
Three HIV NRTI resistant strains (HIV-1 LAI-M184V, HIV-1 RTMDR1, with 74V, 41L, 106A and 215Y mutations, and HIV-1 RTMC, with 67N, 70R, 215F and 219Q mutations) were used to test the effectiveness of 5-aza-dC. […] Mutations include: M41L, E44D, A62V, K65R, D67N, T69DN, T69S_SS, K70R, L74V, V75I, F77L, Y115F, F116Y, V118I, Q151M, M184V, L210W, T215F and K219QE.
The effectiveness of DHAdC was tested against wild-type HIV strains and NRTI resistant HIV strains as described in Example 2. The following strains were tested: HIV-1 LAI, wild-type; HIV-I LAI-M184V-M184V mutation with resistance to lamivudine (3TC); HIV-1 RTMDR1-74V, 41L, 106A and 215Y mutations with resistance to zidovudine, didanosine, nevirapine and other non-nucleoside reverse transcriptase inhibitors; and HIV-1 RTMC-67N, 70R, 215F and 219Q with resistance to zidovudine.

HIV-1 LAI = experiment: Treatment of HIV-1-infected MT-2 cells with nucleoside analogues, p24 ELISA; assay type: cell-based
Experimental: The strains of HIV-1 used for primary drug screening are HIV-1 LAI or the appropriate strain of NRTI resistant HIV for studies of cross-resistance. Virus was propagated on MT-2 cells at an multiplicity of infection (MOI) of 0.01 to generate virus stocks. Briefly, the MT-2 cells were suspended in RPMI 1640 media supplemented with 10% fetal bovine serum, streptomycin and penicillin (cRPMI) and grown in a 37° C. incubator containing 5% CO2. Serial dilution of the virus and infection of MT-2 cells were followed by an ELISA detecting the capsid protein of HIV-1 (p24) and used to determine the titer of the virus stocks (50% tissue culture infectious dose (TCID50)). The ELISA was performed according to the manufacturer's instructions. The MT-2 cells are also used for visualizing the cytopathic effects of HIV-1 growth (e.g. syncytia formation).
as §1, with “plate. To generate an EC50 value, half-log concentrations of mutagenic nucleoside or nucleotide analogue capable of eradicating virus in a single passage are tested as above to generate a dose-response curve.” for “plate.”

NC1=NC(=O)N([C@H]2C[C@H](O)[C@@H](CO)O2)CN1 [DHAdC, 1-(2-Deoxy-β-D-ribofuranosyl)-4-amino-1,2,5,6-tetrahydro-1,3,5-triazin-2-one]
EC50 [1]: 6 µM | mitochondrial toxicity (increase in lactate production or inhibition of mitochondrial DNA) (mitochondrial DNA): does not demonstrate evidence of mitochondrial toxicity | CD4+ (HIV; 10 mg/kg/day): 13% | CD4+ CD8+ (HIV; 10 mg/kg/day): 70% | CD8+ (HIV; 10 mg/kg/day): 9.5% | HIV-1 RNA (HIV; 10 mg/kg/day): 5.3 log copies/10^6 cells | p24 (HIV; 10 mg/kg/day): 510 pg/10^6 cells | Viral liter (HIV; 10 mg/kg/day, ** p < 0.05): 15.2** viruses/10^6 cells | CD4+ (HIV; 100 mg/kg/day): 10% | CD4+ CD8+ (HIV; 100 mg/kg/day): 63% | CD8+ (HIV; 100 mg/kg/day): 11% | HIV-1 RNA (HIV; 100 mg/kg/day): 5.1 log copies/10^6 cells | Viral liter (HIV; 100 mg/kg/day): 24.9 viruses/10^6 cells | p24 (HIV; 100 mg/kg/day): 570 pg/10^6 cells | EC50 (HIV-1 LAI-M184V): 6 µM | EC50 (HIV-1 LAI; Human immunodeficiency virus 1, MT2, read-out: EC50 against HIV, against HIV, strain not stated, 'in the range of'): ~0.01 µM | EC50 (HIV-1 LAI; Human immunodeficiency virus 1, MT2, wild-type HIV strain LAI, MT-2 cells): 3 µM
